Assay results: PMC12514245, “Impaired migration and lung invasion of human melanoma by a novel small molecule targeting the transmembrane domain of death receptor p75^NTR” (EMBO Molecular Medicine, 2025)

Test system: A875 NT cells
Assay: Wound healing cell motility assay, A875 NT
Type: cell-based, human
Conditions: for Fold (wound area) / Wound area (Fold): A875 NT; for Fold (wound area): 0.75uM
Method: For wound healing assay, cells were grown until confluency and subjected to a wound across the cell mono-layer. Cells were then incubated with serum-free media either with DMSO or a small molecule (with or without 5 µM Q_VD_poH) and imaged at specific time-points. Cell migration is reflected as fold change in wound area over time.

`Cc1cccc(-c2cncc(Nc3ccc(Br)c(Cl)c3Cl)n2)c1C` [Np75-4A22] was tested, and the “Fold (wound area)” value (0 h, Average) was 1.000 Fold, the “Fold (wound area)” value (0 h, n1) was 1.000 Fold and the “Fold (wound area)” value (0 h, n2) was 1.000 Fold. The “Fold (wound area)” value (0 h, n3) was 1.000 Fold, the “Fold (wound area)” value (3 h, Average) was 0.916 Fold and the “Fold (wound area)” value (3 h, n1) was 0.908 Fold. The “Fold (wound area)” value (3 h, n2) was 0.920 Fold, the “Fold (wound area)” value (3 h, n3) was 0.920 Fold and the “Fold (wound area)” value (6 h, Average) was 0.871 Fold. The “Fold (wound area)” value (6 h, n1) was 0.867 Fold, the “Fold (wound area)” value (6 h, n2) was 0.870 Fold and the “Fold (wound area)” value (6 h, n3) was 0.875 Fold. For the same compound, the “Fold (wound area)” value (9 h, Average) was 0.851 Fold, the “Fold (wound area)” value (9 h, n1) was 0.821 Fold and the “Fold (wound area)” value (9 h, n2) was 0.862 Fold. For the same compound, the “Fold (wound area)” value (9 h, n3) was 0.870 Fold, the “Fold (wound area)” value (12 h, Average) was 0.799 Fold and the “Fold (wound area)” value (12 h, n1) was 0.783 Fold. The “Fold (wound area)” value (12 h, n2) was 0.824 Fold, the “Fold (wound area)” value (12 h, n3) was 0.790 Fold and the “Fold (wound area)” value (15 h, Average) was 0.781 Fold. For the same compound, the “Fold (wound area)” value (15 h, n1) was 0.755 Fold, the “Fold (wound area)” value (15 h, n2) was 0.799 Fold and the “Fold (wound area)” value (15 h, n3) was 0.789 Fold. The “Fold (wound area)” value (18 h, Average) was 0.759 Fold, the “Fold (wound area)” value (18 h, n1) was 0.732 Fold and the “Fold (wound area)” value (18 h, n2) was 0.791 Fold. The “Fold (wound area)” value (18 h, n3) was 0.755 Fold, the “Fold (wound area)” value (21 h, Average) was 0.739 Fold and the “Fold (wound area)” value (21 h, n1) was 0.694 Fold. The “Fold (wound area)” value (21 h, n2) was 0.751 Fold, the “Fold (wound area)” value (21 h, n3) was 0.773 Fold and the “Fold (wound area)” value (24 h, Average) was 0.707 Fold. The “Fold (wound area)” value (24 h, n1) was 0.674 Fold, the “Fold (wound area)” value (24 h, n2) was 0.730 Fold and the “Fold (wound area)” value (24 h, n3) was 0.715 Fold. The “Wound area (Fold)” value (1uM, 0 h, Mean) was 1.000 Fold, the “Wound area (Fold)” value (1uM, 0 h, n1) was 0.9625 Fold and the “Wound area (Fold)” value (1uM, 0 h, n2) was 0.9804 Fold. For the same compound, the “Wound area (Fold)” value (1uM, 0 h, n3) was 1.057 Fold, the “Wound area (Fold)” value (1uM, 3 h, Mean) was 0.967 Fold and the “Wound area (Fold)” value (1uM, 3 h, n1) was 0.9475 Fold. The “Wound area (Fold)” value (1uM, 3 h, n2) was 1.012 Fold, the “Wound area (Fold)” value (1uM, 3 h, n3) was 0.9416 Fold and the “Wound area (Fold)” value (1uM, 6 h, Mean) was 0.905 Fold. The “Wound area (Fold)” value (1uM, 6 h, n1) was 0.8734 Fold, the “Wound area (Fold)” value (1uM, 6 h, n2) was 0.9482 Fold and the “Wound area (Fold)” value (1uM, 6 h, n3) was 0.8944 Fold. For the same compound, the “Wound area (Fold)” value (1uM, 9 h, Mean) was 0.855 Fold, the “Wound area (Fold)” value (1uM, 9 h, n1) was 0.8188 Fold and the “Wound area (Fold)” value (1uM, 9 h, n2) was 0.9061 Fold. The “Wound area (Fold)” value (1uM, 9 h, n3) was 0.8389 Fold, the “Wound area (Fold)” value (1uM, 12 h, Mean) was 0.827 Fold and the “Wound area (Fold)” value (1uM, 12 h, n1) was 0.7941 Fold. The “Wound area (Fold)” value (1uM, 12 h, n2) was 0.8768 Fold, the “Wound area (Fold)” value (1uM, 12 h, n3) was 0.8105 Fold and the “Wound area (Fold)” value (1uM, 15 h, Mean) was 0.795 Fold. The “Wound area (Fold)” value (1uM, 15 h, n1) was 0.7522 Fold, the “Wound area (Fold)” value (1uM, 15 h, n2) was 0.8472 Fold and the “Wound area (Fold)” value (1uM, 15 h, n3) was 0.7844 Fold. For the same compound, the “Wound area (Fold)” value (1uM, 18 h, Mean) was 0.773 Fold, the “Wound area (Fold)” value (1uM, 18 h, n1) was 0.739 Fold and the “Wound area (Fold)” value (1uM, 18 h, n2) was 0.8198 Fold. For the same compound, the “Wound area (Fold)” value (1uM, 18 h, n3) was 0.7589 Fold, the “Wound area (Fold)” value (1uM, 21 h, Mean) was 0.762 Fold and the “Wound area (Fold)” value (1uM, 21 h, n1) was 0.7242 Fold. The “Wound area (Fold)” value (1uM, 21 h, n2) was 0.8105 Fold, the “Wound area (Fold)” value (1uM, 21 h, n3) was 0.7528 Fold and the “Wound area (Fold)” value (1uM, 24 h, Mean) was 0.743 Fold. For the same compound, the “Wound area (Fold)” value (1uM, 24 h, n1) was 0.7122 Fold, the “Wound area (Fold)” value (1uM, 24 h, n2) was 0.7843 Fold and the “Wound area (Fold)” value (1uM, 24 h, n3) was 0.7318 Fold. For the same compound, the “Wound area (Fold)” value (2uM, 0 h, Mean) was 1.000 Fold, the “Wound area (Fold)” value (2uM, 0 h, n1) was 1.119 Fold and the “Wound area (Fold)” value (2uM, 0 h, n2) was 0.971 Fold. The “Wound area (Fold)” value (2uM, 0 h, n3) was 0.910 Fold, the “Wound area (Fold)” value (2uM, 3 h, Mean) was 0.939 Fold and the “Wound area (Fold)” value (2uM, 3 h, n1) was 0.920 Fold. For the same compound, the “Wound area (Fold)” value (2uM, 3 h, n2) was 0.934 Fold, the “Wound area (Fold)” value (2uM, 3 h, n3) was 0.964 Fold and the “Wound area (Fold)” value (2uM, 6 h, Mean) was 0.916 Fold. For the same compound, the “Wound area (Fold)” value (2uM, 6 h, n1) was 0.889 Fold, the “Wound area (Fold)” value (2uM, 6 h, n2) was 0.924 Fold and the “Wound area (Fold)” value (2uM, 6 h, n3) was 0.935 Fold. The “Wound area (Fold)” value (2uM, 9 h, Mean) was 0.883 Fold, the “Wound area (Fold)” value (2uM, 9 h, n1) was 0.869 Fold and the “Wound area (Fold)” value (2uM, 9 h, n2) was 0.889 Fold. The “Wound area (Fold)” value (2uM, 9 h, n3) was 0.891 Fold, the “Wound area (Fold)” value (2uM, 12 h, Mean) was 0.872 Fold and the “Wound area (Fold)” value (2uM, 12 h, n1) was 0.845 Fold. The “Wound area (Fold)” value (2uM, 12 h, n2) was 0.886 Fold, the “Wound area (Fold)” value (2uM, 12 h, n3) was 0.885 Fold and the “Wound area (Fold)” value (2uM, 15 h, Mean) was 0.864 Fold. The “Wound area (Fold)” value (2uM, 15 h, n1) was 0.827 Fold, the “Wound area (Fold)” value (2uM, 15 h, n2) was 0.886 Fold and the “Wound area (Fold)” value (2uM, 15 h, n3) was 0.880 Fold. For the same compound, the “Wound area (Fold)” value (2uM, 18 h, Mean) was 0.859 Fold, the “Wound area (Fold)” value (2uM, 18 h, n1) was 0.819 Fold and the “Wound area (Fold)” value (2uM, 18 h, n2) was 0.879 Fold. The “Wound area (Fold)” value (2uM, 18 h, n3) was 0.879 Fold, the “Wound area (Fold)” value (2uM, 21 h, Mean) was 0.856 Fold and the “Wound area (Fold)” value (2uM, 21 h, n1) was 0.813 Fold. For the same compound, the “Wound area (Fold)” value (2uM, 21 h, n2) was 0.878 Fold, the “Wound area (Fold)” value (2uM, 21 h, n3) was 0.878 Fold and the “Wound area (Fold)” value (2uM, 24 h, Mean) was 0.847 Fold. For the same compound, the “Wound area (Fold)” value (2uM, 24 h, n1) was 0.809 Fold, the “Wound area (Fold)” value (2uM, 24 h, n2) was 0.868 Fold and the “Wound area (Fold)” value (2uM, 24 h, n3) was 0.864 Fold. The wound healing assay (low micromolar and submicromolar concentrations) was “considerable inhibitory activity”.
